Broadly, the IC50 is the midpoint of a concentration-inhibition curve.

Experimental findings from ChEMBL document CHEMBL4402590, “Small-Molecule Antagonist Targeting Exportin-1 via Rational Structure-Based Discovery” (J Med Chem, 2020) are described below.

In test [1] the target is T1, Exportin-1 (Homo sapiens, UniProt O14980). The test can be described thus: Reversible inhibition of CRM1 in human 293T cells assessed as increase in translocation of NES-GFP to […] at 4 uM incubated for 2 hrs by confocal laser scanning microscopy. In kind it is cell-based.
T1 sequence (O14980 whole entry): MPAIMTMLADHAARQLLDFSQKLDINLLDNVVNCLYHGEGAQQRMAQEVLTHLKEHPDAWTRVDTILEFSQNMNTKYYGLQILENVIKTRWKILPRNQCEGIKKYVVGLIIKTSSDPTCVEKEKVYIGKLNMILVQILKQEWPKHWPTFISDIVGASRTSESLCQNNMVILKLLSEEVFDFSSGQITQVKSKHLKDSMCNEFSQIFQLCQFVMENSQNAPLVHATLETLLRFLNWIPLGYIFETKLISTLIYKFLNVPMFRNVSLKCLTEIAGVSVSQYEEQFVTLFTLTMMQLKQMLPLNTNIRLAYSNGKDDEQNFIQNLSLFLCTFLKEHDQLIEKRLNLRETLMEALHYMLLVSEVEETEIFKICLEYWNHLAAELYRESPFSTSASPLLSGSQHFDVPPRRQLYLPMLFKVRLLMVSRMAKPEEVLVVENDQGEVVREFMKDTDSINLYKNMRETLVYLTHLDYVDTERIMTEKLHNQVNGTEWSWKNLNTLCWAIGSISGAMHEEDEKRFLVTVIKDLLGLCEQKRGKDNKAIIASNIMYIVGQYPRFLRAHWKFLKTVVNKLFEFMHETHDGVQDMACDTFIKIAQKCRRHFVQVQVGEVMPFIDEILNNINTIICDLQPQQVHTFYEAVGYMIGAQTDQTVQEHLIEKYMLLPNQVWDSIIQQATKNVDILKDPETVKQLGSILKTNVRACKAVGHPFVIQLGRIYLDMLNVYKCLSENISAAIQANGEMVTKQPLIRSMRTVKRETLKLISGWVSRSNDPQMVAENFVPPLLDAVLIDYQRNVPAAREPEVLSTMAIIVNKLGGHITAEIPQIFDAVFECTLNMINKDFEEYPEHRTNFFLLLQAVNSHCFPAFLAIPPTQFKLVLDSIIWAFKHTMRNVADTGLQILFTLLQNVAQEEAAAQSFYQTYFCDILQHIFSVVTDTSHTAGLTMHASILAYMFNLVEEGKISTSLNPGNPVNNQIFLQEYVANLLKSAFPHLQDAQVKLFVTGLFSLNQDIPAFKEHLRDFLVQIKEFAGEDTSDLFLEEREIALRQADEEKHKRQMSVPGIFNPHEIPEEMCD
The subject of test [2] is Mus musculus. The experiment in a line: Anti-inflammatory activity against DSS-induced ulcerative colitis C57BL/6J mouse model assessed as preservation of colon mucosal architecture at 3 and 30 mg/kg, po administered for 7 days and measured on day 7 by […] and eosin staining based microscopic analysis. In kind it is functional, organism-based.
For test [3], the system named is Mus musculus. The test can be described thus: Anti-inflammatory activity against DSS-induced ulcerative colitis C57BL/6J mouse model assessed as reduction in colon swelling at 3 and 30 mg/kg, po administered for 7 days and measured on day 7 by […] and eosin staining based microscopic analysis. In kind it is functional, organism-based.
In test [4] the test system is Mus musculus. The experiment in a line: Anti-inflammatory activity against DSS-induced ulcerative colitis C57BL/6J mouse model assessed as reduction in colon inflammation at 3 and 30 mg/kg, po administered for 7 days and measured on day 7 by […] and eosin staining based microscopic analysis. In kind it is functional, organism-based.
The test system of test [5] is Mus musculus. The test can be described thus: Anti-inflammatory activity against DSS-induced ulcerative colitis C57BL/6J mouse model assessed as reduction in colon ulceration at 3 and 30 mg/kg, po administered for 7 days and measured on day 7 by […] and eosin staining based microscopic analysis. Format: functional, organism-based.
Test [6] concerns Mus musculus. The test can be described thus: Anti-inflammatory activity against DSS-induced ulcerative colitis C57BL/6J mouse model assessed as re-epithelialization of colon at 3 and 30 mg/kg, po administered for 7 days and measured on day 7 by […] and eosin staining based microscopic analysis. Format: functional, organism-based.
For test [7], the target named is T1, Exportin-1. The test can be described thus: Inhibition of nuclear CRM1 (unknown origin) by cell based assay.

Active and inactive are the calls of the source. No cut-off for these calls is given here.

For the compound `O=C(/C=C\n1cnc(-c2cc(C(F)(F)F)cc(C(F)(F)F)c2)n1)NNc1cnccn1`, the inhibition result at Exportin-1 [1] is “inactive”.
For `Nc1ccc(O)c(C(=O)O)c1`, the outcome in the test with Mus musculus [2], with Mus musculus [3], with Mus musculus [4], in the test with Mus musculus [5] and with Mus musculus [6] was inactive.
The compound `[O-][S+](/C=C/CCN=C=S)c1ccccc1` (configuration not stated) showed an IC50 against Exportin-1 [7] of 1500 nM.
